# Tested on: KRAS-mutant PDC tumor spheroid with HUVEC/MSC, viability
# Assay: Anticancer human tumor 327498-153-R-J2-PDC patient-derived uterine carcinosarcoma cell line growth inhibition [KRAS2]
# Conditions: for IC50: curve of first compound; for viability, T/C: stronger effect = lower value
# From the text: Multicellular complex tumor spheroid response to RAS pathway inhibitors in combination with a targeted agents in patient-derived cell lines with oncogenic KRAS variants from multiple cancer types
# A high-throughput screen of multi-cell type tumor spheroids was designed to identify active combinations of targeted small molecules and KRAS pathway inhibitors. Complex spheroids include a stromal component modeled by human endothelial cells (HUVEC) and fibroblasts modeled by human mesenchymal stem cells (MSCs). The concentration ranges selected for each drug and investigational agent were based upon clinically achievable concentrations if the clinical Cmax of the agent was known.
# Compounds. The drugs and investigational agents: BI-3406 (NSC825286), BAY-293 (NSC824723), batoprotafib (TNO155; NSC825523), sotorasib (AMG 510; NSC818433), MRTX1257 (NSC819558), elimusertib (BAY 1895344; NSC800525), molibresib (GSK525762; NSC774829), temuterkib (LY3214996; NSC803410), venetoclax (NSC766270), alisertib (NSC759677), olaparib (NSC753686), talazoparib (NSC767125), erdafitinib (NSC781556), ipatasertib (NSC767898), cabozantinib (NSC761068), nintedanib (NSC756659), abemaciclib (NSC768073), docetaxel (NSC628503), trametinib (NSC758246), and sapanisertib (NSC764658) were obtained from the National Cancer Institute (NCI) Developmental Therapeutics Program Chemical Repository. The FDA-approved anticancer drug set is available from the Developmental Therapeutics Program. […] The stock solutions were prepared in dimethyl sulfoxide (DMSO, Sigma-Aldrich, St. Louis, MO, cat. D2650) at 800-fold the tested concentration and stored at -70 degrees C prior to their use. All drugs and investigational agents were tested over a range starting from a high concentration at or near the clinical Cmax and decreasing in half-log increments. If the clinical Cmax for an agent had not been determined, the highest concentration tested was 10 microM.
# Cell Culture. All cells were maintained in an incubator at 37 degrees C and 5% CO2 with 95% humidity. The PDC lines were cultured according to standard operating procedures established by the NCI PDMR (https://pdmr.cancer.gov/sops/default.htm). Briefly, all PDCs were thawed and cultured in Matrigel-coated flasks prepared with a working solution of 1X Ham's F-12 nutrient mix, without supplementation (Invitrogen, Waltham, MA, cat. 11765054), 100 U/mL penicillin-streptomycin (Invitrogen, cat. 15140122), and 2.5% Matrigel (Corning Inc., Corning, NY, cat. 354248) for the first three passages. All PDCs were cultured in complete DMEM/F-12 media containing advanced DMEM/F-12 (Invitrogen, cat. 12634028), 4.9% defined fetal bovine serum, heat inactivated (HyClone Laboratories Inc., Logan, UT, cat. SH30070.03HI), 389 ng/mL hydrocortisone (Sigma-Aldrich, cat. H4001), 9.7 ng/mL human EGF recombinant protein (Invitrogen, cat. PHG0313), 23.4 microg/mL adenine (Sigma-Aldrich, cat. A2786), 97.3 U/mL penicillin-streptomycin (Invitrogen, cat. 15140122), 1.9 mM L-glutamine (Invitrogen, cat. 25030081), and 9.7 microM Y-27632 dihydrochloride (Tocris Bioscience, Bristol, United Kingdom, cat. 1254). The PDCs were cultured in complete DMEM/F12 media without 9.7 microM Y-27632 dihydrochloride for at least two passages prior to the screen. The established cell line HOP-62 was cultured in RPMI 1640 medium, HEPES (Invitrogen, cat. 22400105) with 10% defined fetal bovine serum (HyClone Laboratories Inc., cat. SH30070.03) and 2 mM L-glutamine (Invitrogen, cat. 25030081). The pooled donor HUVEC were cultured in endothelial cell growth medium 2 (PromoCell, Heidelberg, Germany, cat. C-22011) and the hMSC were cultured in mesenchymal stem cell growth medium 2 (PromoCell, cat. C-28009). For all experiments, HUVEC and hMSC were used at passages </=5, while the malignant cell lines were used at passages </=15. […]
# [1] = second compound 0.1 µM, first compound 0.000316 µM
# [2] = second compound 0.1 µM, first compound 0.001 µM
# [3] = second compound 0.1 µM, first compound 0.00316 µM
# [4] = second compound 0.1 µM, first compound 0.01 µM
# [5] = second compound 0.1 µM, first compound 0.0316 µM
# [6] = second compound 0.1 µM, first compound 0.1 µM
# [7] = second compound 0.316 µM, first compound 0.000316 µM
# [8] = second compound 0.316 µM, first compound 0.001 µM
# [9] = second compound 0.316 µM, first compound 0.00316 µM
# [10] = second compound 0.316 µM, first compound 0.01 µM
# [11] = second compound 0.316 µM, first compound 0.0316 µM
# [12] = second compound 0.316 µM, first compound 0.1 µM
# [13] = second compound 1 µM, first compound 0.000316 µM
# [14] = second compound 1 µM, first compound 0.001 µM
# [15] = second compound 1 µM, first compound 0.00316 µM
# [16] = second compound 1 µM, first compound 0.01 µM
# [17] = second compound 1 µM, first compound 0.0316 µM
# [18] = second compound 1 µM, first compound 0.1 µM
# [19] = second compound 3.16 µM, first compound 0.000316 µM
# [20] = second compound 3.16 µM, first compound 0.001 µM
# [21] = second compound 3.16 µM, first compound 0.00316 µM
# [22] = second compound 3.16 µM, first compound 0.01 µM
# [23] = second compound 3.16 µM, first compound 0.0316 µM
# [24] = second compound 3.16 µM, first compound 0.1 µM
# [25] = second compound 10 µM, first compound 0.000316 µM
# [26] = second compound 10 µM, first compound 0.001 µM
# [27] = second compound 10 µM, first compound 0.00316 µM
# [28] = second compound 10 µM, first compound 0.01 µM
# [29] = second compound 10 µM, first compound 0.0316 µM
# [30] = second compound 10 µM, first compound 0.1 µM
# [31] = second compound 0.1 µM, first compound 0.316 µM
# [32] = second compound 0.1 µM, first compound 1 µM
# [33] = second compound 0.1 µM, first compound 3.16 µM
# [34] = second compound 0.1 µM, first compound 10 µM
# [35] = second compound 0.316 µM, first compound 0.316 µM
# [36] = second compound 0.316 µM, first compound 1 µM
# [37] = second compound 0.316 µM, first compound 3.16 µM
# [38] = second compound 0.316 µM, first compound 10 µM
# [39] = second compound 1 µM, first compound 0.316 µM
# [40] = second compound 1 µM, first compound 1 µM
# [41] = second compound 1 µM, first compound 3.16 µM
# [42] = second compound 1 µM, first compound 10 µM
# [43] = second compound 3.16 µM, first compound 0.316 µM
# [44] = second compound 3.16 µM, first compound 1 µM
# [45] = second compound 3.16 µM, first compound 3.16 µM
# [46] = second compound 3.16 µM, first compound 10 µM
# [47] = second compound 10 µM, first compound 0.316 µM
# [48] = second compound 10 µM, first compound 1 µM
# [49] = second compound 10 µM, first compound 3.16 µM
# [50] = second compound 10 µM, first compound 10 µM
# 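Also: spheroids exposed to agents for seven days before reading.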
# 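For viability, T/C in this document: 100% = DMSO vehicle wells so lower means fewer viable cells.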
SMILES,IC50 (second compound 0.1 µM) [µM],IC50 (second compound 0.316 µM) [µM],IC50 (second compound 1 µM) [µM],IC50 (second compound 3.16 µM) [µM],IC50 (second compound 10 µM) [µM],"viability, T/C [1] [%]","viability, T/C [2] [%]","viability, T/C [3] [%]","viability, T/C [4] [%]","viability, T/C [5] [%]","viability, T/C [6] [%]","viability, T/C [7] [%]","viability, T/C [11] [%]","viability, T/C [12] [%]","viability, T/C [17] [%]","viability, T/C [18] [%]","viability, T/C [23] [%]","viability, T/C [24] [%]","viability, T/C [29] [%]","viability, T/C [30] [%]",further results
CC(C)n1nc(-c2ccc3oc(N)nc3c2)c2c(N)ncnc21 + C=CC(=O)N1CCN(c2nc(=O)n(-c3c(C)ccnc3C(C)C)c3nc(-c4c(O)cccc4F)c(F)cc23)C(C)C1,0.000576,< 0.000316,< 0.000316,< 0.000316,< 0.000316,57.6,40.7,34.6,17.6,8.67,5.6,45.4,9.71,5.39,7.05,5.38,6.92,6.19,5.88,5.69,"viability, T/C [8]: 41.2%; viability, T/C [9]: 26.1%; viability, T/C [10]: 14.3%; viability, T/C [13]: 49.5%; viability, T/C [14]: 38%; viability, T/C [15]: 23.5%; viability, T/C [16]: 14.4%; viability, T/C [19]: 42.1%; viability, T/C [20]: 33.2%; viability, T/C [21]: 21.5%; viability, T/C [22]: 13.9%; viability, T/C [25]: 31.1%; viability, T/C [26]: 25.3%; viability, T/C [27]: 19.1%; viability, T/C [28]: 8.99%"
CC1(C)CCC(CN2CCN(c3ccc(C(=O)NS(=O)(=O)c4ccc(NCC5CCOCC5)c([N+](=O)[O-])c4)c(Oc4cnc5[nH]ccc5c4)c3)CC2)=C(c2ccc(Cl)cc2)C1 + C=CC(=O)N1CCN(c2nc(=O)n(-c3c(C)ccnc3C(C)C)c3nc(-c4c(O)cccc4F)c(F)cc23)C(C)C1,1.3,1.74,1.58,1.21,< 0.0316,–,–,–,–,65.7,61.1,–,57,54.5,60.7,55.2,52.6,53.5,43.2,41.6,"viability, T/C [31]: 54%; viability, T/C [32]: 57.4%; viability, T/C [33]: 36.5%; viability, T/C [34]: 1.21%; viability, T/C [35]: 58.1%; viability, T/C [36]: 57.5%; viability, T/C [37]: 42.7%; viability, T/C [38]: 6.41%; viability, T/C [39]: 57.4%; viability, T/C [40]: 52.2%; viability, T/C [41]: 44.3%; viability, T/C [42]: 1.34%; viability, T/C [43]: 53.2%; viability, T/C [44]: 52.6%; viability, T/C [45]: 37.4%; viability, T/C [46]: 0.58%; viability, T/C [47]: 37.8%; viability, T/C [48]: 46.5%; viability, T/C [49]: 10.5%; viability, T/C [50]: 2.01%"
COc1cc2nccc(Oc3ccc(NC(=O)C4(C(=O)Nc5ccc(F)cc5)CC4)cc3)c2cc1OC + C=CC(=O)N1CCN(c2nc(=O)n(-c3c(C)ccnc3C(C)C)c3nc(-c4c(O)cccc4F)c(F)cc23)C(C)C1,1.35,1.15,1.07,1.03,< 0.0316,–,–,–,–,55.8,63.5,–,56.8,59.5,49.1,52.4,51.4,49.7,36,37.5,"viability, T/C [31]: 60.1%; viability, T/C [32]: 59.6%; viability, T/C [33]: 22.6%; viability, T/C [34]: 1.82%; viability, T/C [35]: 59.9%; viability, T/C [36]: 54.5%; viability, T/C [37]: 16.5%; viability, T/C [38]: 1.34%; viability, T/C [39]: 53.7%; viability, T/C [40]: 54%; viability, T/C [41]: 16%; viability, T/C [42]: 1.1%; viability, T/C [43]: 54.8%; viability, T/C [44]: 50.9%; viability, T/C [45]: 15.2%; viability, T/C [46]: 0.82%; viability, T/C [47]: 39.9%; viability, T/C [48]: 34%; viability, T/C [49]: 8.7%; viability, T/C [50]: 0.79%"
Cn1ncnc1[C@H]1c2n[nH]c(=O)c3cc(F)cc(c23)N[C@@H]1c1ccc(F)cc1 + C=CC(=O)N1CCN(c2nc(=O)n(-c3c(C)ccnc3C(C)C)c3nc(-c4c(O)cccc4F)c(F)cc23)C(C)C1,0.00387,0.00346,0.00197,0.00174,< 0.000316,63.7,58.6,54,36.1,22.2,15.6,54.8,19.8,15.4,21,15.9,21.7,14.8,16.9,13.4,"viability, T/C [8]: 60.3%; viability, T/C [9]: 49.1%; viability, T/C [10]: 36.9%; viability, T/C [13]: 59%; viability, T/C [14]: 59.5%; viability, T/C [15]: 42.7%; viability, T/C [16]: 34.1%; viability, T/C [19]: 55.9%; viability, T/C [20]: 53%; viability, T/C [21]: 47%; viability, T/C [22]: 32.4%; viability, T/C [25]: 39.9%; viability, T/C [26]: 45.1%; viability, T/C [27]: 34.1%; viability, T/C [28]: 20.5%"

# From PubChem BioAssay AID1963867 (Molecular Pharmacology Branch, DTP, NCI, 2024)
